# Reference: EP0939649B1, “ADDITIVE, IN PARTICULAR IN THE FORM OF AN EMULSION CONTAINING A TRIVALENT METAL CATION AND VACCINE COMPOSITION CONTAINING SAME” (priority 1996, dated 1998)
# What was measured:
# [1] = test system: sérum albumine bovine (BSA); experiment: Immunostimulant effect of adjuvants: IgG1/IgG2a antibody response in mice vaccinated subcutaneously with BSA antigen; assay type: in vivo, souris; details: 21 days after vaccination, 100 µl s.c. per mouse, 10 µg BSA, salts at optimal concentration; for réponse lgG2a: represents cellular response; for réponse lgG1: represents humoral response
# Protocol: Ces compositions thérapeutiques comprennent, à titre d'antigène de la sérum albumine bovine (BSA), Grade V, Sigma.
# Ces compositions thérapeutiques (dose/souris) d'un volume de 100 µl mises en oeuvre comprenaient 10µg d'antigène et ont été injectées par voie sous-cutanée.
# Les résultats ont été obtenus 21 jours après vaccination:
# Les réponses IgG 1 sont représentatives de la réponse humorale,
# Les réponses IgG 2a sont représentatives de la réponse cellulaire.
# [2] = Local reactions (lesions and granulomas) at the injection site after subcutaneous injection in mice; assay type: in vivo, souris; details: 8 days after s.c. injection, 1000 µl, 10 µg BSA
# Protocol: On a injecté à différents lots comprenant chacun 5 souris, une composition thérapeutique d'un volume de 1000 µl, comprenant 10 µg d'antigène (BSA), par voie sous-cutanée. On a évalué les réactions locales (lésions et granulomes) 8 jours après injection.
Molecule,réponse lgG2a [1],réponse lgG1 [1],réactions locales (lésions et granulomes) ([2]; souris 1),réactions locales (lésions et granulomes) ([2]; souris 2),réactions locales (lésions et granulomes) ([2]; souris 3),réactions locales (lésions et granulomes) ([2]; souris 5)
"[OH][Al]([OH])[OH] [AlOH, hydroxyde d'Aluminium]",<1000,8000,–,–,–,–
"CC(=O)[O-].[Al+3].[OH-].[OH-] [C2H5AlO4 (forme soluble), acétate d'Aluminium soluble (C2H5AlO4)]",8000,64000,0,0,0,0
"CC(=O)[O-].CC(=O)[O-].[Al+3].[OH-] [C4H7AlO5 (forme insoluble), forme insoluble d'acétate d'Aluminium (C4H7AlO5)]",<1000,<1000,–,–,–,–
phosphate d'Aluminium [AlPO4],<1000,<1000,–,–,–,–
salicylate d'Aluminium,6000,48000,–,–,–,–
